One block for each molecule: values may come before it.
Columns and labels:
P2Y purinoceptor 12 [1] = molecular target: T1, P2Y purinoceptor 12 (Homo sapiens, UniProt Q9H244); assay: Binding affinity to human P2Y12 expressed in astrocytoma cells; assay type: cell-based, Astrocyte
[2] = Antiplatelet activity in human platelet rich plasma assessed as inhibition of ADP-induced platelet aggregation preincubated for 1 min followed by ADP addition and measured after 6 to 8 mins by Born method; assay type: functional, cell-based
[3] = Antiplatelet activity in rat platelet rich plasma assessed as inhibition of ADP-induced platelet aggregation preincubated for 1 min followed by ADP addition and measured after 6 mins by Born method; assay type: functional, cell-based
Blood [4] = assay: Ex vivo inhibition of platelet aggregation in Sprague-Dawley rat blood at 3 mg/kg, po measured after 2 hrs; assay type: functional
Blood [5] = assay: Ex vivo inhibition of platelet aggregation in Sprague-Dawley rat blood at 1 mg/kg, iv measured after 2 hrs; assay type: functional
[6] = Antiplatelet activity in human platelet rich plasma assessed as inhibition of ADP-induced platelet aggregation; assay type: functional, cell-based
Homo sapiens = assay: Antiplatelet activity in human assessed as inhibition of ADP-induced platelet aggregation at 100 mg, po after 4 hrs; assay type: functional; set-up: scale not given: the % may be the effect or the level left
P2Y purinoceptor 12 [7] = molecular target: T1, P2Y purinoceptor 12; assay: Displacement of [3H]2MeSADP from human P2Y12 preincubated for 5 mins followed by [3H]2MeSADP addition and measured after 15 mins by scintillation counting method
[8] = Half life in human plasma; assay type: ADME, cell-free
[9] = Lipophilicity, logP of compound; assay type: physicochemical; details: octanol/water
[10] = Anti-platelet aggregation activity in human platelets assessed as inhibition of epinephrine induced aggregation; assay type: functional, cell-based
Blood [11] = assay: Ex vivo inhibition of platelet aggregation in Sprague-Dawley rat blood at 10 mg/kg, po measured after 2 hrs; assay type: functional; set-up: scale not given: the % may be the effect or the level left
[12] = Antiplatelet activity in human platelet rich plasma assessed as inhibition of ADP-induced platelet aggregation preincubated for 2 mins followed by ADP addition and measured after 6 mins by Born method; assay type: functional, cell-based
[13] = Anti-platelet aggregation activity in rat platelets assessed as inhibition of ADP-induced aggregation pre-treated for 5 mins followed by ADP addition and measured after 5 mins; assay type: functional, cell-based
Blood [14] = assay: Ex vivo inhibition of platelet aggregation in Sprague-Dawley rat blood at 3 mg/kg, iv measured after 30 mins; assay type: functional; details: 0.5 h
[15] = Antiplatelet activity in rabbit platelet rich plasma assessed as inhibition of ADP-induced platelet aggregation at 150.8 uM preincubated for 3 mins followed by ADP addition and measured after 5 mins relative to control; assay type: functional, Oryctolagus cuniculus; set-up: scale not given: the % may be the effect or the level left; details: time 8 min
[16] = Antiplatelet activity in human platelet rich plasma assessed as inhibition of ADP-induced platelet aggregation preincubated for 5 mins followed by ADP addition and measured after 20 mins by microplate reader analysis; assay type: functional, cell-based
[17] = Antiplatelet activity in human platelet rich plasma assessed as inhibition of CaCl2/fibrinogen-induced platelet aggregation preincubated for 5 mins followed by CaCl2/fibrinogen addition by microplate reader analysis; assay type: functional, cell-based
Rattus norvegicus = species on record: Rattus norvegicus; assay: Anti-platelet aggregation activity in Sprague-Dawley rat assessed as reduction in bleeding time; assay type: functional
[18] = Antiplatelet activity in human platelet rich plasma assessed as inhibition of ADP-induced platelet aggregation at 10 uM preincubated for 2 mins followed by ADP addition by turbidimetric method relative to control; assay type: functional; set-up: scale not given: the % may be the effect or the level left
[19] = Antiplatelet activity in human platelet rich plasma assessed as inhibition of collagen-induced platelet aggregation at 3 uM preincubated for 2 mins followed by collagen addition by turbidimetric method relative to control; assay type: functional; set-up: scale not given: the % may be the effect or the level left
[20] = Antiplatelet activity in rabbit platelet rich plasma assessed as inhibition of ADP-induced platelet aggregation preincubated for 5 mins followed by ADP addition and measured after 5 mins by turbidimetric method; assay type: functional, cell-based; details: Oryctolagus cuniculus
[21] = Antiplatelet activity in human platelet rich plasma assessed as inhibition of thrombin-induced platelet aggregation at 3 uM preincubated for 2 mins followed by thrombin addition by turbidimetric method relative to control; assay type: functional; set-up: scale not given: the % may be the effect or the level left
P2Y purinoceptor 12 [22] = molecular target: T1, P2Y purinoceptor 12; assay: Displacement of tritium-labeled 2MeSADP from human P2Y12 expressed in CHO cells measured after 2 hrs by scintillation counting method; assay type: cell-based
[23] = Antiplatelet activity in human platelet rich plasma assessed as inhibition of ADP-induced platelet aggregation preincubated for 2 mins followed by ADP addition for 5 mins; assay type: functional, cell-based

T1 sequence (Q9H244 whole entry): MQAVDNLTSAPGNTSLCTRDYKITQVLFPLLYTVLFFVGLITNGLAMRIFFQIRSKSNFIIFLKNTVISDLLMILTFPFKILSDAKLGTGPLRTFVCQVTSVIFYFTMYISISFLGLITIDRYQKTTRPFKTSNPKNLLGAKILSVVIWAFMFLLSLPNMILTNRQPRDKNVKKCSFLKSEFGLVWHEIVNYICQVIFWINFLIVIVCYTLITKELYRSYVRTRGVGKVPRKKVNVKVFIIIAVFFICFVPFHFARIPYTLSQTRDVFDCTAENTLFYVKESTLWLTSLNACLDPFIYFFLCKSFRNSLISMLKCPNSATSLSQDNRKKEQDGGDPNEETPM

Ki (P2Y purinoceptor 12 [1]): 51 nM
SMILES: Cc1cc(Nc2ccc(Nc3ccccc3)c(S(=O)(=O)O)c2)c2c(c1N)C(=O)c1ccccc1C2=O

Ki (P2Y purinoceptor 12 [1]): 25 nM
SMILES: Cc1c(N)cccc1Nc1cc(S(=O)(=O)O)c(N)c2c1C(=O)c1ccccc1C2=O

SMILES: CCCC(=O)c1cnn(C2CCN(NC(=O)c3cn(CC(=O)N4CCN(C)CC4)c4ccc(Cl)cc34)CC2)c1C
IC50 [2]: 25 nM
IC50 [3]: 43 nM
inhibition in vivo at 3 mg/kg (Blood [4]): 72%
inhibition in vivo at 1 mg/kg (Blood [5]): 88%

IC50 [6]: 10000 nM
IC50 (P2Y purinoceptor 12 [7]): 50 nM
half-life [8]: 12 h
SMILES: CNc1cc2[nH]c(=O)n(-c3ccc(NC(=O)NS(=O)(=O)c4ccc(Cl)s4)cc3)c(=O)c2cc1F [ELINOGREL]
Activity (Homo sapiens): 60%

logP [9]: 3.74
SMILES: COC(=O)[C@H](c1ccccc1Cl)N1CCc2sccc2C1 [CLOPIDOGREL]

IC50 [10]: 20 nM
SMILES: C[C@@H]1CC[C@]2(C(=O)O)CC[C@]3(C)C(=CC[C@@H]4[C@@]5(C)CC[C@H](O)C(C)(C)[C@@H]5CC[C@]43C)[C@@H]2[C@]1(C)O [POMOLIC ACID]

SMILES: CCCC(=O)c1cnn(-c2cnc(NC(=O)c3cn(CC(=O)N4CCN(C)CC4)c4ccc(Cl)cc34)cn2)c1C
inhibition in vivo at 1 mg/kg (Blood [5]): 86.3%
Activity (Blood [11]): 76%

IC50 [12]: ≤ 11 nM
SMILES: CCOC(=O)N1CCN(C(=O)[C@H](CCC(=O)O)NC(=O)c2cc(OCC(=O)N3CCC[C@H]3C(=O)NCC(F)(F)F)n(-c3ccccc3)n2)CC1

IC50 [12]: ≤ 11 nM
SMILES: CCOC(=O)N1CCN(C(=O)[C@H](CCC(=O)O)NC(=O)c2cc(OCC(=O)N3CCC[C@H]3C(=O)NC3CCC3)n(-c3cccc(F)c3)n2)CC1

IC50 [13]: 30900 nM
SMILES: CC(C)CCCC(C)[C@H]1CC[C@]2(C)[C@@H]1[C@H](O)C[C@@H]1[C@@]3(C)CC[C@H](O)C(C)(C)[C@@H]3[C@@H](O[C@@H]3O[C@H](CO)[C@@H](O)[C@H](O)[C@H]3O)C[C@]12C (stereo not given in full)

SMILES: CCCC(=O)c1cnn(C2CCC(NC(=O)c3cn(CC(=O)N4CCN(C)CC4)c4ccc(Cl)cc34)CC2)c1C (stereo not given)
IC50 [2]: 270 nM
IC50 [3]: 91 nM
inhibition in vivo at 3 mg/kg (Blood [4]): 42.8%
inhibition in vivo at 3 mg/kg (Blood [14]): 79%

SMILES: COc1cc2c(cc1OC)-c1c(C)c3ccc(OC)c(OC)c3c[n+]1CC2 [DEHYDROCORYDALINE]
Activity [15]: 73.48%

IC50 [16]: 30 nM
SMILES: CCOC(=O)N1CCN(C(=O)[C@H](CCC(=O)O)NC(=O)c2cc(O[C@H](C)C(=O)N3CCC[C@H]3C(=O)NC3CCCC3)c3ccc(C)cc3n2)CC1

IC50 [17]: 2910 nM
SMILES: CCCSc1nc(N[C@@H]2C[C@H]2c2ccccc2)c2nnn([C@@H]3C=C[C@H](OCC(=O)O)[C@@H](O)[C@H]3O)c2n1

Ki (P2Y purinoceptor 12 [1]): 63 nM
SMILES: Cc1cc(C)cc(Nc2cc(S(=O)(=O)O)c(N)c3c2C(=O)c2ccccc2C3=O)c1

SMILES: CCC(C)C(N)C(=O)Oc1cc2c(s1)CCN(C(C(=O)C1CC1)c1ccccc1F)C2.Cl (stereo not given)
ED50 (Rattus norvegicus): 0.74 mg/kg

IC50 [20]: 197 nM
SMILES: CC1CC(=O)NN=C1c1ccc(NC(=N)N)cc1 (stereo not given)
Activity [18]: 95.09%
Activity [19]: 100%
Activity [21]: 100%

IC50 (P2Y purinoceptor 12 [22]): 1 nM
SMILES: CCCCOC(=O)N1CCN(C(=O)[C@H](CP(=O)(O)O)NC(=O)c2nc(-c3ccccc3)sc2N(C)CCCC)CC1

SMILES: COC(=O)C(c1ccccc1Cl)N1CCc2sc(OC(=O)C(N)CC(C)C)cc2C1.Cl (stereo not given)
ED50 (Rattus norvegicus): 2.16 mg/kg

IC50 [23]: 8 nM
SMILES: CCCCOC(=O)N1CCN(C(=O)[C@H](CP(=O)(OCOC(=O)OC(C)C)OCOC(=O)OC(C)C)NC(=O)c2cc(N3CC[C@H](OC)C3)nc(-c3ccccc3)n2)CC1

logP [9]: 4.05
SMILES: Clc1ccccc1CN1CCc2sccc2C1 [TICLOPIDINE]

logP [9]: 3.42
SMILES: CC(=O)Oc1cc2c(s1)CCN(C(C(=O)C1CC1)c1ccccc1F)C2 (stereo not given) [PRASUGREL]

— ChEMBL document CHEMBL5126507, “P2Y12 antagonists: Approved drugs, potential naturally isolated and synthesised compounds, and related in-silico studies” (Eur J Med Chem, 2022)
